# Measurements reported in patent publication US20230071222A1, “METHOD FOR PREPARING FIBROSIS-ENCAPSULATED TUMOROID, AND USE THEREOF” (INDUSTRY-ACADEMIC COOPERATION FOUNDATION, YONSEI UNIVERSITY, priority 2020, published 2023).
# Tested on: fibrosis-encapsulated tumoroid (FET)
# Assay: Anticancer drug resistance test of fibrosis-encapsulated tumoroid (cell viability measurement)
# Assay type: cell-based, human
# Conditions: cisplatin, 100 µM; fibrosis-encapsulated tumoroid (FET) compared to the simple tumoroid (tumor only); FIG. 10B
# Method: The present inventors performed a drug resistance test in order to evaluate whether it was possible to select drugs, which can be effective in the clinical stage, using the fibrosis-encapsulated tumoroid which is a solid cancer tissue analogue produced by the methods of Examples 1 to 4 (see FIGS. 10A and 10B). […] The drug test was conducted through cell viability measurement. The cell viability of each of the group containing the anticancer drug and the control group not containing the anticancer drug was measured after replacing the medium with maintenance medium. […] The cell viability of the solid cancer tissue analogue was measured using Promega’s CellTiter-Glo luminescent cell viability assay as another measurement method, and the death of cancer cells by the anticancer drug could be indirectly confirmed by comparison with the control group. […] The fibrosis-encapsulated tumoroid produced as described above mimicked a series of processes in which the anticancer agent passes sequentially through the blood vessel wall and fibrotic tissue and reaches cancer tissue, in the same way as in the human body. Thus, it is preferable to finally produce the eFET and conduct an anticancer drug test using the eFET, but only the FET may be selectively used in order to reduce cost or time. […]
compound,measurement,value
N.N.[Cl][Pt][Cl] [cisplatin],resistance to the anticancer drug (cell viability),statistically significant resistance
